Columns and labels:
[1] = tested on: HeLa cells; test: cytotoxicity by crystal violet staining; assay type: cell-based; settings: 40 h
Experimental: Seven of the compounds according to the invention were selected for biological tests. Their cytotoxicity was assessed using crystal violet staining as adapted from standard procedure^[31]. Briefly, HeLa cells were seeded on 96-well plates, treated with the given concentrations of the selected compound, and exposed or not to the pulse protocol of illumination with light at 390 nm (pulses of 75 ms every 15 s). After 40 h cells were stained with crystal violet solution (0.5% crystal violet in 20% methanol) for 10 min. Unbound crystal violet was removed by rinsing with distilled water and cells were air-dried. Crystal violet was subsequently eluted from cells with 0.1 M sodium citrate in 50% ethanol. The absorbance of crystal violet is proportional to the cell number and was determined at 590 nm with a FLUOstar Omega microplate reader (BMG Labtech).
Each compound was tested at 6 doses: 100 nM, 500 nM, 1 μM, 2 μM, 5 μM and 10 μM. In order to ensure their solubility in the cell culture media, DMSO was used as a co-solvent, and to provide comparability between all samples the volume of DMSO was adjusted to obtain its final concentration as 1% in the cell culture media for all the compounds at all concentrations tested.
Results presented in Table 4 below are expressed as a fold growth relative to the control growth of the cells treated only with a co-solvent (1% DMSO), and are represented as a mean value from triplicates coming from a representative experiment.

[2] = tested on: MDA-MB-231; test: membrane permeability, PI uptake in nonpermeabilized cells; assay type: cell-based; settings: 70 h
Experimental: (§1) Membrane integrity was assessed as a marker of cellular viability, via examining the uptake of propidium iodide (PI) in nonpermeabilized cells according to a standard protocol. Namely, cells were harvested and incubated with 5 μg/mL PI in PBS containing 2% FCS (foetal calf serum), and immediately analysed by flow cytometry using a FACSCalibur flow cytometer.

[3] = tested on: Jurkat cells; test: as above; assay type: cell-based; settings: 48 h
Experimental: as §1

[4] = tested on: HeLa cells; test: MTT assay; assay type: cell-based; settings: 48 h
Description: The cytotoxic properties of I.1 were subsequently confirmed with another method, using the quantification of mitochondrial dehydrogenase activity of cells as determined by the level of 3-(4.5-dimethylthiazol-2-yl)-2.5-diphenyl tetrazolium bromide (MTT) reduction to its purple formazan, according to standard protocol^[30]. […] Cells were kept in the dark, or exposed to a pulsed toxic regime of 390 nm only, or exposed to a strong rescue protocol with pulses of 390 nm then 505 nm light. Pulses of light were applied every 30 s; 390 nm light pulses lasted 150 ms every 30 s, while the 505 nm light pulses were applied for 500 ms; in the strong rescue regime, the 505 nm pulse was synchronised so that it began immediately after the 390 nm pulse ended.
Cellular viability was measured 48 h later, namely, cells were incubated with MTT for three hours and after dissolution of the formazan crystals with DMSO, absorbance at 550 nm was measured using a FLUOstar Omega microplate reader. Results are shown in Table 5 below and are expressed as a fold growth relative to the control growth of the cells treated only with a co-solvent (0.5% MeCN) and represent mean and standard deviation of quadruplicates of the optical density values, which are proportional to the cell number.

[5] = fluorescence spectrophotometry (excitation and emission spectra); assay type: physicochemical
Experimental: Absorption spectra in cuvette (“UV-Vis”) were acquired on a Varian CaryScan 50 (1 cm, 100 μL or 1 mL volume) with Peltier cell temperature control unit maintained at 37° C., in PBS at pH˜7.4 containing a low percentage of cosolvent if needed (typically 2% MeCN or 5% DMSO). A ThorLabs Polychrome V monochromator with a fibre optic cable output directed into the cuvette was used to perform photoisomerisation studies by UV-Vis spectrophotometry although single LEDs of approximately 10-20 mW output, 15-20° cone angle, and 10-15 nm bandwidth FWHM, obtained commercially from Roithner Lasertechnik GmbH, were equally successful in providing repeatable monochromatic photoisomerisation. Separated spectra of trans and […] forms were acquired from the inline Diode Array Detector on the AGILENT 1260 SL coupled LC-MS system after HPLC separation. Fluorescence spectrophotometry (excitation and emission spectra) were acquired on a Varian CaryEclipse fluorescence spectrophotometer.
Fluorescence imaging is commonly used to sensitively, conveniently and non-invasively determine the local concentration of fluorescent species in biological and medical settings. Considering I.25 as an example of a compound of the invention bearing a fluorescent reporter, it was considered desirable that its rhodamine moiety would allow fluorescence detection of I.25.

COc1ccc(N=Nc2cc(OC)c(OC)c(OC)c2)cc1O [I.1, 2-methoxy-5-((3,4,5-trimethoxyphenyl)diazenyl)phenol]
mean fold growth ([1]; 100 nM, 390 nm (75 ms every 15 s)): 0.95 fold | mean fold growth ([1]; 100 nM, Dark): 0.95 fold | mean fold growth ([1]; 500 nM, 390 nm (75 ms every 15 s)): 0.85 fold | mean fold growth ([1]; 500 nM, Dark): 0.89 fold | mean fold growth ([1]; 1 μM, 390 nm (75 ms every 15 s)): 0.43 fold | mean fold growth ([1]; 1 μM, Dark): 0.87 fold | mean fold growth ([1]; 2 μM, 390 nm (75 ms every 15 s)): 0.35 fold | mean fold growth ([1]; 2 μM, Dark): 0.89 fold | mean fold growth ([1]; 5 μM, 390 nm (75 ms every 15 s)): 0.27 fold | mean fold growth ([1]; 5 μM, Dark): 0.84 fold | mean fold growth ([1]; 10 μM, 390 nm (75 ms every 15 s)): 0.35 fold | mean fold growth ([1]; 10 μM, Dark): 0.75 fold | mean % cells PI+ ([2]; 200 nM, 390 nm (1 s every 15 min)): 4.4% | mean % cells PI+ ([2]; 200 nM, dark): 5.0% | mean % cells PI+ ([2]; 600 nM, 390 nm (1 s every 15 min)): 8.2% | mean % cells PI+ ([2]; 600 nM, dark): 4.6% | mean % cells PI+ ([2]; 1.5 μM, 390 nm (1 s every 15 min)): 24.1% | mean % cells PI+ ([2]; 1.5 μM, dark): 4.3% | mean % cells PI+ ([2]; 5 μM, 390 nm (1 s every 15 min)): 47.2% | mean % cells PI+ ([2]; 5 μM, dark): 5.0% | mean % cells PI+ ([3]; 50 nM, 390 nm (350 ms every 5 min)): 1.3% | mean % cells PI+ ([3]; 50 nM, Dark): 1.6% | mean % cells PI+ ([3]; 100 nM, 390 nm (350 ms every 5 min)): 2.3% | mean % cells PI+ ([3]; 100 nM, dark): 2.2% | mean % cells PI+ ([3]; 200 nM, 390 nm (350 ms every 5 min)): 3.4% | mean % cells PI+ ([3]; 200 nM, dark): 2.3% | mean % cells PI+ ([3]; 400 nM, 390 nm (350 ms every 5 min)): 6.3% | mean % cells PI+ ([3]; 400 nM, dark): 2.3% | mean % cells PI+ ([3]; 600 nM, 390 nm (350 ms every 5 min)): 8.1% | mean % cells PI+ ([3]; 600 nM, dark): 2.8% | mean fold growth ([4]; 10 nM, 390 nm (150 ms every 30 s)): 0.95 fold | mean fold growth ([4]; 10 nM, Dark): 0.93 fold | mean fold growth ([4]; 20 nM, 390 nm (150 ms every 30 s)): 0.96 fold | mean fold growth ([4]; 20 nM, Dark): 1.02 fold | mean fold growth ([4]; 50 nM, 390 nm (150 ms every 30 s)): 0.96 fold | mean fold growth ([4]; 50 nM, Dark): 1.01 fold | mean fold growth ([4]; 100 nM, 390 nm (150 ms every 30 s)): 0.93 fold | mean fold growth ([4]; 100 nM, dark): 1.01 fold | mean fold growth ([4]; 400 nM, 390 nm (150 ms every 30 s)): 0.28 fold | mean fold growth ([4]; 400 nM, dark): 1.00 fold | mean fold growth ([4]; 400 nM, rescue: 390 nm (150 ms) then 505 nm (500 ms) every 30 s): 0.46 fold | mean fold growth ([4]; 600 nM, 390 nm (150 ms every 30 s)): 0.21 fold | mean fold growth ([4]; 600 nM, dark): 1.05 fold | mean fold growth ([4]; 800 nM, 390 nm (150 ms every 30 s)): 0.17 fold | mean fold growth ([4]; 800 nM, Dark): 0.98 fold | mean fold growth ([4]; 1 μM, 390 nm (150 ms every 30 s)): 0.18 fold | mean fold growth ([4]; 1 μM, dark): 0.93 fold | mean fold growth ([4]; 2 μM, 390 nm (150 ms every 30 s)): 0.21 fold | mean fold growth ([4]; 2 μM, Dark): 0.98 fold | toxicity ([4]; in the dark, 10 nM-2 μM): no toxicity | concentration inducing severe cytotoxicity ([4]; upon exposure to the light (390 nm)): ≥ 400 nM

CCN(CC)c1ccc2c(-c3ccccc3C(=O)N3CCN(CCCOc4c(N=Nc5cc(OC)c(OC)c(OC)c5)ccc(OC)c4C)CC3)c3ccc(=[N+](CC)CC)cc-3oc2c1.CCN(CC)c1ccc2c(-c3ccccc3C(=O)N3CCN(CCCOc4c(N=Nc5cc(OC)c(OC)c(OC)c5)ccc(OC)c4C)CC3)c3ccc(=[N+](CC)CC)cc-3oc2c1.O=C[O-].O=C[O-] [I.25, N-(6-(diethylamino)-9-(2-(4-(3-(3-methoxy-2-methyl-6-((3,4,5-trimethoxyphenyl)diazenyl)phenoxy)propyl)piperazine-1-carbonyl)phenyl)-3H-xanthen-3-ylidene)-N-ethylethanaminium bis(formate) salt]
excitation wavelength giving maximum emission intensity ([5]; emission at 590 nm): 570 nm | fluorescence emission maximum ([5]; excited at 380 nm or 554 nm, 10 μM, 60:32:8 EtOH:PBS:MeCN, 25° C.): 590 nm
